Data taken from publication PMC5826148, “Whole-Cell Screen of Fragment Library Identifies Gut Microbiota Metabolite Indole Propionic Acid as Antitubercular” (Antimicrobial Agents and Chemotherapy, 2018).
Values after ≈ are worked out from the molar mass of the structure shown. Like-named read-outs stand apart in the source and are kept apart here.

Assays:
[1] = Cytotoxicity assay, THP-1 cells (CellTiter 96 AQueous One); conditions: human
[2] = Cytotoxicity assay, HepG2 cells (CellTiter 96 AQueous One); conditions: human, HepG2 cells
[3] = test system: Staphylococcus aureus; test: Spectrum of activity: S. aureus growth inhibition; type: cell-based; conditions: Staphylococcus aureus, read-out: Antibacterial activity (MIC50) S. aureus
[4] = test system: Escherichia coli; test: Spectrum of activity: E. coli growth inhibition; type: cell-based; conditions: Escherichia coli, read-out: Antibacterial activity (MIC50) E. coli
[5] = test system: M. tuberculosis; test: Growth inhibition in acidic medium (pH 6.2); type: cell-based, Mycobacterium tuberculosis
[6] = test system: M. smegmatis; test: Spectrum of activity: M. smegmatis growth inhibition; type: cell-based; conditions: Mycolicibacterium smegmatis, 24 h, read-out: Antibacterial activity (MIC50) M. smegmatis
[7] = test system: human red blood cells (RBCs); test: Red blood cell lysis assay; conditions: hemolysis
[8] = test system: M. bovis BCG Pasteur; test: microbe, parasite or virus in culture; type: cell-based; conditions: Mycobacterium tuberculosis variant bovis BCG, BCG, read-out: Antibacterial activity (MIC50) M. bovis BCG
[9] = test system: M. tuberculosis H37Rv; test: Bactericidal activity, CFU enumeration on agar after treatment; type: cell-based, Mycobacterium tuberculosis; conditions: Mycobacterium tuberculosis, H37RV, read-out: Bactericidal activity (log reduction) at 1 mM
[10] = test system: M. tuberculosis H37Rv; test: M. tuberculosis growth inhibition dose-response (MIC50), turbidity readout; type: cell-based, Mycobacterium tuberculosis; conditions: Mycobacterium tuberculosis, 240 h, read-out: Antibacterial activity (MIC50) M. tuberculosis
[11] = test system: M. abscessus; test: Spectrum of activity: M. abscessus growth inhibition; type: cell-based; conditions: Mycobacteroides abscessus, 72 h, read-out: Antibacterial activity (MIC50) M. abscessus
[12] = test system: M. avium; test: Spectrum of activity: M. avium growth inhibition; type: cell-based; conditions: Mycobacterium avium, 96 h, read-out: Antibacterial activity (MIC50) M. avium
[13] = Mycobacterium tuberculosis, pH 6.2; read-out: Activity (MIC50) in acidic medium (pH 6.2)
[14] = M. tuberculosis, 1 mM, log CFU/ml reduction from initial inoculum
[15] = Mycobacterium tuberculosis, pH 6.2, read-out: Activity (MIC50) in acidic medium (pH 6.2)

| SMILES | CC50 at 24 h [1] | CC50 at 24 h [2] | MIC50 ([3]; LB medium, overnight) | MIC50 ([4]; LB medium, overnight) | MIC50 [5, 13] | MIC50 ([6]; 1 day) | RBCs HC50 [7] | MIC50 [8] | log reduction at 1000 µM [9, 14] | MIC50 ([10]; H37Rv, 10 days) | MIC50 ([11]; 3 days) | MIC50 ([12]; 4 days) | MIC50 [3] | MIC50 [4] | MIC50 [5, 15] | MIC50 [6] | log reduction at 1000 µM [9] | MIC50 ([10]; H37RV) | MIC50 [11] | MIC50 [12] |
| --- | --- | --- | --- | --- | --- | --- | --- | --- | --- | --- | --- | --- | --- | --- | --- | --- | --- | --- | --- | --- |
| O=c1cc(C(F)(F)F)c2ccc(O)cc2o1 [Fragment F2, 7-Hydroxy-4-(trifluoromethyl)-2H-chromen-2-one] | 879 µM | 987 µM | 198 µM (≈ 45.6 µg/mL) | 432 µM (≈ 99.4 µg/mL) | 179 µM (≈ 41.2 µg/mL) | 476 µM (≈ 110 µg/mL) | >1,000 μM | 329 µM (≈ 75.7 µg/mL) | 1.1 | 213 µM (≈ 49 µg/mL) | > 500 µM | > 500 µM | – | – | – | – | – | – | – | – |
| Cc1ncc(C(N)=S)[nH]1 [Fragment F3, 2-Methyl-1H-imidazole-4-carbothioamide] | 850 µM | > 1000 µM | > 500 µM | > 500 µM | 98 µM (≈ 13.8 µg/mL) | > 500 µM | >1,000 μM | 134 µM (≈ 18.9 µg/mL) | 1.87 | 105 µM (≈ 14.8 µg/mL) | 304 µM (≈ 42.9 µg/mL) | 198 µM (≈ 28 µg/mL) | – | – | – | – | – | – | – | – |
| COC(=O)c1cc2ccccc2cn1 [Fragment F4, Methyl isoquinoline-3-carboxylate] | > 1000 µM | > 1000 µM | > 500 µM | > 500 µM | 158 µM (≈ 29.6 µg/mL) | 389 µM (≈ 72.8 µg/mL) | >1,000 μM | 143 µM (≈ 26.8 µg/mL) | 1.98 | 175 µM (≈ 32.8 µg/mL) | > 500 µM | 344 µM (≈ 64.4 µg/mL) | – | – | – | – | – | – | – | – |
| Nc1ccc2oc3c(c2c1)CCCC3 [Fragment F5, 6,7,8,9-Tetrahydrodibenzo [b,d]furan-2-amine] | > 1000 µM | > 1000 µM | > 500 µM | > 500 µM | 62 µM (≈ 11.6 µg/mL) | > 500 µM | >1,000 μM | 488 µM (≈ 91.4 µg/mL) | 1.11 | 245 µM (≈ 45.9 µg/mL) | > 500 µM | > 500 µM | – | – | – | – | – | – | – | – |
| c1ccc2c(c1)[nH]c1cnccc12 [Fragment F6, 9H-Pyrido[3,4-b]indole] | – | – | – | – | – | – | 787 µM | 205 µM (≈ 34.5 µg/mL) | – | – | – | – | > 500 µM | 302 µM (≈ 50.8 µg/mL) | 113 µM (≈ 19 µg/mL) | 121 µM (≈ 20.4 µg/mL) | 0.43 | 97 µM (≈ 16.3 µg/mL) | 254 µM (≈ 42.7 µg/mL) | 302 µM (≈ 50.8 µg/mL) |
| Cc1oc(-c2ccc(Cl)cc2)cc1C(=O)N(C)C [Fragment F8, 5-(4-Chlorophenyl)-N,N,2-trimethyl-3-furamide] | 234 µM | 589 µM | > 500 µM | > 500 µM | 93 µM (≈ 24.5 µg/mL) | 233 µM (≈ 61.4 µg/mL) | 433 µM | 189 µM (≈ 49.8 µg/mL) | 1.44 | 135 µM (≈ 35.6 µg/mL) | 322 µM (≈ 84.9 µg/mL) | 169 µM (≈ 44.6 µg/mL) | – | – | – | – | – | – | – | – |
| COC(=O)c1sc2ccccc2c1O [Fragment F9, Methyl 3-hydroxy-1-benzo thiophene-2-carboxylate] | – | – | 217 µM (≈ 45.2 µg/mL) | > 500 µM | 240 µM (≈ 50 µg/mL) | > 500 µM | >1,000 μM | > 500 µM | 2.09 | 142 µM (≈ 29.6 µg/mL) | > 500 µM | > 500 µM | – | – | – | – | – | – | – | – |
| O=C(O)c1ccc(-c2ccccc2)s1 [Fragment F10, 5-Phenylthiophene-2-carboxylic acid] | 544 µM | 612 µM | > 500 µM | > 500 µM | 97 µM (≈ 19.8 µg/mL) | 345 µM (≈ 70.5 µg/mL) | >1,000 μM | 397 µM (≈ 81.1 µg/mL) | 1.46 | 186 µM (≈ 38 µg/mL) | 247 µM (≈ 50.4 µg/mL) | > 500 µM | – | – | – | – | – | – | – | – |
| CSc1cc(-c2ccc(F)cc2)n[nH]1 [Fragment F11, 3-(4-Fluorophenyl)-5-(methylsulfanyl)-1H-pyrazole] | 765 µM | 945 µM | > 500 µM | 344 µM (≈ 71.6 µg/mL) | 140 µM (≈ 29.2 µg/mL) | 398 µM (≈ 82.9 µg/mL) | >1,000 μM | 308 µM (≈ 64.1 µg/mL) | 3.06 | 195 µM (≈ 40.6 µg/mL) | 271 µM (≈ 56.4 µg/mL) | 498 µM (≈ 104 µg/mL) | – | – | – | – | – | – | – | – |
| Clc1ccc2nc(N3CCCNCC3)sc2c1 [Fragment F12, 6-Chloro-2-(1,4-diazepan-1-yl)-1,3-benzothiazole] | 124 µM | 187 µM | > 500 µM | 324 µM (≈ 86.8 µg/mL) | 104 µM (≈ 27.8 µg/mL) | 221 µM (≈ 59.2 µg/mL) | >1,000 μM | 137 µM (≈ 36.7 µg/mL) | 2.8 | 198 µM (≈ 53 µg/mL) | 351 µM (≈ 94 µg/mL) | 157 µM (≈ 42 µg/mL) | – | – | – | – | – | – | – | – |
| O=C(O)c1cc2ccccc2cn1 [Fragment F14, Isoquinoline-3-carboxylic acid] | – | – | – | – | – | – | >1,000 μM | 193 µM (≈ 33.4 µg/mL) | – | – | – | – | 304 µM (≈ 52.6 µg/mL) | 193 µM (≈ 33.4 µg/mL) | 87 µM (≈ 15.1 µg/mL) | 176 µM (≈ 30.5 µg/mL) | 1.97 | 235 µM (≈ 40.7 µg/mL) | > 500 µM | 473 µM (≈ 81.9 µg/mL) |
| Cc1n[nH]c(C)c1Oc1ccc(Cl)cc1 [Fragment F15, 4-(4-Chlorophenoxy)-3,5-dimethyl-1H-pyrazole] | 345 µM | 676 µM | 79 µM (≈ 17.6 µg/mL) | > 500 µM | 157 µM (≈ 35 µg/mL) | 198 µM (≈ 44.1 µg/mL) | 453 µM | 156 µM (≈ 34.7 µg/mL) | 2.43 | 235 µM (≈ 52.3 µg/mL) | 256 µM (≈ 57 µg/mL) | 174 µM (≈ 38.7 µg/mL) | – | – | – | – | – | – | – | – |
| Cc1cc(C(=O)O)c(C)n1Cc1cccs1 [Fragment F16, 2,5-Dimethyl-1-(2-thienylmethyl)-1H-pyrrole-3-carboxylic acid] | 724 µM | 766 µM | > 500 µM | > 500 µM | 345 µM (≈ 81.2 µg/mL) | > 500 µM | >1,000 μM | > 500 µM | 1.89 | 247 µM (≈ 58.1 µg/mL) | > 500 µM | > 500 µM | – | – | – | – | – | – | – | – |
| NCc1cccc(N2CCCCC2)n1 [Fragment F17, [6-(Piperidin-1-yl)pyridin-2-yl]methanamine] | 489 µM | 455 µM | 104 µM (≈ 19.9 µg/mL) | > 500 µM | 245 µM (≈ 46.9 µg/mL) | > 500 µM | >1,000 μM | 345 µM (≈ 66 µg/mL) | 3.07 | 250 µM (≈ 47.8 µg/mL) | > 500 µM | 271 µM (≈ 51.8 µg/mL) | – | – | – | – | – | – | – | – |
| Cc1ccc2c(c1)N(CCO)C(C)(C)CC2C.O (stereo not shown) [Fragment F18, 2-(2,2,4,7-Tetramethyl-1,2,3,4-tetrahydroquinolin-1-yl)ethan-1-ol hydrate] | – | – | – | – | – | – | 471 µM | 87 µM | – | – | – | – | 189 µM | > 500 µM | 86 µM | 205 µM | 1.67 | 268 µM | 247 µM | 198 µM |
| CCOC(=O)c1c(N)sc(C)c1-c1ccccc1 [Fragment F19, Ethyl 2-amino-5-methyl-4-phenylthiophene-3-carboxylate] | 247 µM | 233 µM | 344 µM (≈ 89.9 µg/mL) | > 500 µM | 117 µM (≈ 30.6 µg/mL) | 491 µM (≈ 128 µg/mL) | 453 µM | 267 µM (≈ 69.8 µg/mL) | 1.98 | 270 µM (≈ 70.6 µg/mL) | 206 µM (≈ 53.8 µg/mL) | 214 µM (≈ 55.9 µg/mL) | – | – | – | – | – | – | – | – |
| O=C(O)c1ccc(-c2cccs2)s1 [Fragment F20, [2,2′-Bithiophene]-5-carboxylic acid] | 974 µM | 765 µM | > 500 µM | > 500 µM | 170 µM (≈ 35.7 µg/mL) | 289 µM (≈ 60.8 µg/mL) | >1,000 μM | 457 µM (≈ 96.1 µg/mL) | 1.98 | 271 µM (≈ 57 µg/mL) | 267 µM (≈ 56.1 µg/mL) | > 500 µM | – | – | – | – | – | – | – | – |
| Cc1cc2cc(N)ccc2[nH]1 [Fragment F21, 2-Methyl-1H-indol-5-amine] | 409 µM | 387 µM | 487 µM (≈ 71.2 µg/mL) | > 500 µM | 305 µM (≈ 44.6 µg/mL) | 401 µM (≈ 58.6 µg/mL) | >1,000 μM | 398 µM (≈ 58.2 µg/mL) | 2.5 | 281 µM (≈ 41.1 µg/mL) | > 500 µM | > 500 µM | – | – | – | – | – | – | – | – |
| N#Cc1ccc(O)cc1F [Fragment F22, 2-Fluoro-4-hydroxybenzonitrile] | 677 µM | 879 µM | 343 µM (≈ 47 µg/mL) | 202 µM (≈ 27.7 µg/mL) | 140 µM (≈ 19.2 µg/mL) | 487 µM (≈ 66.8 µg/mL) | >1,000 μM | 420 µM (≈ 57.6 µg/mL) | 1.6 | 300 µM (≈ 41.1 µg/mL) | 401 µM (≈ 55 µg/mL) | 317 µM (≈ 43.5 µg/mL) | – | – | – | – | – | – | – | – |
